According to patent US11046647B2, “Activators of the unfolded protein response” (The Board of Trustees of the University of Illinois, priority 2018, dated 2021):

What was measured:
TYS-Luc cells = assay: Cell death with or without thapsigargin, TYS-Luc; assay type: cell-based, human; settings: 1 hour
Excerpt: TYS-Luc cells were maintained in DMSO vehicle (Veh) or BHPI, or (−)-105 with or without thapsigargin (THG) for the indicated times. Blocking the decline in ATP levels (FIG. 19) with THG inhibited (−)-105-induced cell death.

[1] = tested on: intracellular ATP levels in TYS-Luc cells; assay: Intracellular ATP levels, TYS-Luc cells; assay type: cell-based, human; settings: 10,000 nM thapsigargin, 1 hr
Description: TYS-Luc cells were maintained DMSO vehicle (Veh), 1,000 nM BHPI, 1,000 nM (−)-105 with and without 10,000 nM thapsigargin (THG) for the indicated times. ATP levels were determines using a kit and relative ATP levels were from a standard curve. […] (n=3±SEM).

Q: With `C/C=C(/C)C(=O)O[C@H]1C(C)=C2[C@H]([C@@H]1OC(=O)CCCCCCC)[C@@](C)(OC(C)=O)C[C@H](OC(=O)CCC)[C@@]1(O)[C@H]2OC(=O)[C@@]1(C)O` [THG, thapsigargin, reference compound] as the molecule, how does the “inhibition of (−)-105-induced cell death” value (TYS-Luc cells) read?
A: strong inhibition

Q: And the “block of (−)-105-induced decline in intracellular ATP levels” value [1]?
A: completely blocked
